According to article PMC7068222, “Inhibition of Tyrosinase by Mercury Chloride: Spectroscopic and Docking Studies” (Frontiers in Pharmacology, 2020):
Where two headings read alike, the source gives them in different places.

Tests used:
[1] = system: tyrosinase (monophenolase and diphenolase activity) in the presence of HgCl2; assay: Effect of premixing amino acids with HgCl2 on tyrosinase inhibition (protection of enzyme activity); type: biochemical, mushroom
Method: According to the results of docking study, we furtherly checked the interactions between HgCl2 and amino acid. We assumed that if HgCl2 indeed binds to the amino acid residues of the enzyme, such as His, Val, Glu, and Ala, premixing the amino acid with HgCl2 would affect the inhibitory effects. Thus, the monophenolase and diphenolase activity of tyrosinase both were determined by adding the mixture of HgCl2 and amino acid. The mixture was prepared just before use by adding an aliquot of 200 μL HgCl2 solution to the equal volume of amino acid solution, and which was allowed to react for 10 mins at room temperature. […] In brief, 5 and 10 mmol/L solutions of His, HgCl2 were prepared beforehand, and the mixture was produced by mixing the His and HgCl2 solutions (10 mmol/L) in the volume ratio of 1:1. The spectra of the samples at the wavelengths between 200 and 800 nm were scanned by using UV spectrophotometer (UV 2550, SHIMADZU).The experiment was repeated three times.

[2] = target: T1, mushroom tyrosinase (diphenolase activity) (Agaricus bisporus, UniProt C7FF04); assay: Kinetic analysis of inhibition mechanism and type (enzyme-concentration plots, Lineweaver-Burk plot, secondary plot); type: biochemical; design: purchased Sigma-Aldrich
Description: (1) 1/ν=Km/Vmax(1+[I]/Ki)1/[S]+1+[I]/Ki/Vmax and a secondary plot is presented below
(2) In.=[I]/KiVmax+1/Vmax where ν is velocity of the enzyme reaction calculated by a change in absorbance at the wavelength of 475 nm per minute in the absence and presence of HgCl2. K m and K i are the Michaelis–Menten constant and inhibition constant, respectively. The values of K m can be calculated from the equation (1). [I] and [S] are the concentrations of inhibitor and substrate, respectively. In. is the intercept value of the Lineweaver–Burk curve. K i should be calculated by the secondary plot of In. vs. [I].
The relationship between enzyme activity (expressed as the rate of the oxidation reaction) and its concentration (6.67, 13.33, 20, 26.67, and 33.33 U/mL) in the presence of different concentrations of HgCl2 (0, 4.17, 16.67, 33.33, and 66.67 μmol/L) was investigated.
Target sequence in this assay (C7FF04 1-392 limits assumed): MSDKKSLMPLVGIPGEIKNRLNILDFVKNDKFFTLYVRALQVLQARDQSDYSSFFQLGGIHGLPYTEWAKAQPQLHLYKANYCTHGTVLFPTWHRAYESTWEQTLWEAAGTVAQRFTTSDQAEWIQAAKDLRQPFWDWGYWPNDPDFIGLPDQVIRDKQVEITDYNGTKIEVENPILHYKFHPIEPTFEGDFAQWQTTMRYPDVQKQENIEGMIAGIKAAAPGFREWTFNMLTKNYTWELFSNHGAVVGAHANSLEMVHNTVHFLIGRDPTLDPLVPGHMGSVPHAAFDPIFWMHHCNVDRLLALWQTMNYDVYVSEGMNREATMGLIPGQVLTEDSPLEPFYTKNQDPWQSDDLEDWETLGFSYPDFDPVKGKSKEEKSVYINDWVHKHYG

[3] = target: T2, mushroom tyrosinase (monophenolase activity) (Agaricus bisporus, UniProt C7FF04); type: biochemical
T2 construct: purchased Sigma-Aldrich
T2 sequence (C7FF04 1-392 limits assumed): as above
Method: The method was modified based on the previous description ([Chen et al., 2016]). […] The appropriate blanks (containing both tyrosine and HgCl2 but without tyrosinase) were tested and subtracted to correct the absorbance.

immobilized tyrosinase = target: T3, immobilized tyrosinase (Agaricus bisporus, UniProt C7FF04); type: biochemical, mushroom
T3 construct: purchased Sigma-Aldrich
T3 sequence (C7FF04 1-392 limits assumed): as above
Method: Experiments were conducted to confirm the inhibitory mechanism of HgCl2 on tyrosinase furtherly by using immobilized tyrosinase. In brief, we added 200 µL of diluted tyrosinase (2500 U/mL) to each well of a 24-well polystyrene plate and then covered the plate and incubated it at 4°C overnight to produce immobilized tyrosinase. The plate was brought to room temperature, and we thoroughly decanted the solution from wells and washed the wells two times with PBS to remove the unfixed enzyme. We added 3 mL of inhibitor solution to each well and incubated them at room temperature for 30 mins to assure the fully reaction between the inhibitor and the enzyme, discarding the liquid following by washing the wells two times with PBS to remove the excess inhibitor. Then, 3 mL of PBS was added to each well, and they stood for 10 mins to make the dissociation of inhibitor-tyrosinase complex. WE thoroughly decanted the solution from wells to remove the dissociated inhibitor (the procedure was repeated three times). Finally, 3 mL of substrate (dopa) was added to each well and react at room temperature for 30 mins to test the residual activity of tyrosinase.

[4] = target: T1, mushroom tyrosinase (diphenolase activity); type: biochemical; conditions: substrate dopa 0.5 mmol/L, tyrosinase 13.33 U/mL, pH 6.8, 305 K
Target sequence in this assay (C7FF04 1-392): as the sequence (C7FF04 1-392 limits assumed) above
Method: The assays were carried out by using 3 mL of reaction system containing 0.5 mmol/L substrate (dopa) in 50 mmol/L PBS (pH = 6.8) at 305 K. The final concentration of tyrosinase was 13.33 U/mL. […] Relative enzymatic activity (%) = (A1-A3)/A2×100%. The experiment was repeated three times. The IC50 value was calculated as the concentration (leading to achieve 50% inhibition) according to the equation, which is obtained by curve fitting of the enzyme activity versus the concentrations of inhibitor.

tyrosinase = target: T4, tyrosinase (Agaricus bisporus, UniProt C7FF04); assay: Intrinsic fluorescence quenching of tyrosinase; type: binding, mushroom; conditions: for Kq (quenching rate constant): Kq = Ksv/τ0, τ0 = 10^-8 s
T4 construct: purchased Sigma-Aldrich
T4 sequence (C7FF04 1-392): as the sequence (C7FF04 1-392 limits assumed) above
Method: The fluorescence emission spectra were obtained using Spectrofluorometer FS5 (Edinburgh Instruments, England) equipped with a 150 W xenon lamp and a thermostat bath. We added a 2.0 mL aliquot of tyrosinase solution (400 U/mL) to the quartz cuvette (1 cm path length) and gradually added 2 mmol/L solution of HgCl2 to give concentrations ranged from 0 to 400 μmol/L. After five-minute incubation periods, fluorescence in the range of 290–500 nm was measured while the excitation wavelength was fixed at 280 nm. All the fluorescence data collected from these experiments were corrected for absorption of excitation light and re-absorption of emitted light according to the following equation: ([Wang et al., 2015])
where F c and F m represent the corrected and measured fluorescence, respectively. A1 and A2 are the absorbance of HgCl2 at excitation and emission wavelengths, respectively.
To identify the interaction mechanism of HgCl2 on tyrosinase, the data of fluorescence quenching were presented in the form of a Stern-Volmer plot, using the following equation:
(4) F0/F=1+Kqτ0[Q]=1+Ksv[Q]
where, F 0 and F represent the steady-state fluorescence intensities in the absence and presence of HgCl2 (quencher), respectively, [Q] denotes the concentration of HgCl2, K q is the quenching rate constant of the biomolecule (K q = K sv/τ0), K sv is the Stern–Volmer dynamic quenching constant, and τ0 is the average lifetime of the fluorophore in the absence of quencher (τ0 = 10^-8 s). The value of K sv determined by the linear regression plot of F0/F vs. [Q] at 298 and 304 K were (2.14 ± 0.05) × 10^4 and 1.83 ± 0.03 × 10^4 L/mol, respectively. […] K sv values decreased gradually with the increase of the temperatures, which manifested that the fluorescence quenching of tyrosinase by HgCl2 was a static quenching process ([Lin et al., 2018]).
For static quenching interactions, if there are similar and independent sites in biological molecules, the apparent binding constants (K a) and the number of binding sites (n) can be obtained from the following equation:
(5) logF0−F/F=logKa+nlog[Q]

[5] = from plot of log[(F0-F)/F] vs log[Q]

Q: How did the “effect on protecting the monophenolase activity in the presence of HgCl2” value ([1]; amino acid premixed with HgCl2) turn out when `CC(C)[C@H](N)C(=O)O` [Val, valine] was run?
A: no effects

Q: `[Cl][Hg][Cl]` [HgCl2, Mercuric chloride] was tested. Which “inhibition type (Lineweaver-Burk)” value ([2]; diphenolase activity, tyrosinase 13.33 U/mL) did it give?
A: non-competitive inhibition

Q: What about the Ki ([2]; diphenolase, secondary plot of intercept vs inhibitor concentration, read-out: Ki (inhibition constant)) of the same molecule?
A: 29.4 µM

Q: And the “inhibition mechanism (reversibility)” value ([2]; plots of activity vs enzyme concentration, HgCl2 0-66.67 μmol/L)?
A: irreversible

Q: What about the “lag time of monophenolase reaction at highest inhibitor concentration” value ([3]; prolonged with increasing inhibitor concentration, without inhibitor 1.44 min (kojic acid series), 2.00 min (HgCl2 series)) of the same molecule?
A: 13.4 min

Q: What about the IC50 ([3]; substrate tyrosine 0.5 mmol/L, tyrosinase 33.33 U/mL, pH 6.8, 305 K) of the same molecule?
A: 30 µM

Q: What about the “Relative activity (%) of immobilized tyrosinase after inhibitor treatment and washing” value (immobilized tyrosinase; kojic acid and HgCl2 666.67 μmol/L, 30 min incubation, PBS treatment = 100%, substrate dopa) of the same molecule?
A: 28.32%

Q: And the IC50 [4]?
A: 77.9 µM

Q: And the “Ksv (Stern-Volmer quenching constant)” value (tyrosinase; 298 K)?
A: (2.14 ± 0.05) × 10^4 L/mol

Q: And the “Kq (quenching rate constant)” value (tyrosinase; 298 K)?
A: (2.14 ± 0.05) × 10^12 L/mol/s

Q: What about the “Ksv (Stern-Volmer quenching constant)” value (tyrosinase; 304 K) of the same molecule?
A: 1.83 ± 0.03 × 10^4 L/mol

Q: And the “Kq (quenching rate constant)” value (tyrosinase; 304 K)?
A: (1.83 ± 0.03) × 10^12 L/mol/s

Q: And the “Ka (apparent binding constant)” value (tyrosinase; [5])?
A: (2.87 ± 0.02) × 10^4 L/mol

Q: And the “n (number of binding sites)” value (tyrosinase; [5])?
A: 0.96 ± 0.01

Q: How did the “effect on protecting the monophenolase activity in the presence of HgCl2” value ([1]; amino acid premixed with HgCl2) turn out when `N[C@@H](CCC(=O)O)C(=O)O` [Glu, glutamate] was run?
A: no effects

Q: `CCO` [95% ethanol, ethanol, reference compound] was tested. Which “Relative activity (%) of immobilized tyrosinase after inhibitor treatment and washing” value (immobilized tyrosinase) did it give?
A: 3.34%

Q: With `C[C@H](N)C(=O)O` [Ala, alanine] as the molecule, how does the “effect on protecting the monophenolase activity in the presence of HgCl2” value ([1]; amino acid premixed with HgCl2) read?
A: no effects

Q: What does the source list for `N[C@@H](Cc1c[nH]cn1)C(=O)O` [His, Histidine]?
A: protecting capability on diphenolase activity in the presence of HgCl2 ([1]; His 10.42 μmol/L): 48.83 ± 1.89%; protecting capability on diphenolase activity in the presence of HgCl2 ([1]; His 666.67 μmol/L): 83.43 ± 2.56%; effect on protecting the diphenolase activity in the presence of HgCl2 ([1]; amino acid premixed with HgCl2): significant effect; effect on protecting the monophenolase activity in the presence of HgCl2 ([1]; amino acid premixed with HgCl2): protect the monophenolase activity
